Test results from ChEMBL document CHEMBL1201862, “PubChem BioAssay data set” (2004).
Values joined by “and” are separate entries in the source; they are usually repeats but may differ in a detail not shown here. Equal values may be shown once.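 In this assay, cells in 96-well plates receive the compound at five concentrations for 48 hours. Endpoints are linearly interpolated between the surrounding concentrations. Abbreviation: GI50, concentration required for 50% inhibition of growth.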 Active and inactive are the calls of the source. Rule as the data show it: active = GI50 up to about 1.1 µM and inactive = higher.

What was measured:
Experiment in all cases: growth of human tumour cells (NCI), 48 h
SF-268 = tested on: SF-268
KM12 = tested on: KM12
CCRF-CEM = tested on: CCRF-CEM
NCI-H460 = tested on: NCI-H460
LOX IMVI = tested on: LOX IMVI
SK-MEL-2 = tested on: SK-MEL-2
RXF 393 = tested on: RXF 393
K562 = tested on: K562
SK-OV-3 = tested on: SK-OV-3
UO-31 = tested on: UO-31
786-0 = tested on: 786-0
SNB-19 = tested on: SNB-19
COLO 205 = tested on: COLO 205
A549 = tested on: A549
OVCAR-8 = tested on: OVCAR-8
TK-10 = tested on: TK-10
OVCAR-5 = tested on: OVCAR-5
SN12C = tested on: SN12C
SF-539 = tested on: SF-539

Measured: GI50

CCc1cc2c(cc1O)CC[C@@H]1[C@@H]2CC[C@]2(C)[C@@H](O)CC[C@@H]12
inactive: SF-268 6.41 µM | KM12 6.19 µM | CCRF-CEM 5.6 µM | NCI-H460 5.42 µM | LOX IMVI 9.75 µM | SK-MEL-2 9.82 µM | RXF 393 3.76 µM | K562 3.88 µM | SK-OV-3 11.7 µM | UO-31 9.08 µM | 786-0 5.21 µM | SNB-19 6.34 µM | COLO 205 17.5 µM | A549 8.05 µM | OVCAR-8 7.24 µM | TK-10 21.9 µM | OVCAR-5 20.3 µM

c1ccc2c(c1)cc1n2CC2CN=NC12 (stereo unspecified)
inactive: SF-268 > 100 µM | KM12 > 100 µM | NCI-H460 > 100 µM | LOX IMVI > 100 µM | SK-MEL-2 > 100 µM | RXF 393 > 100 µM | K562 > 100 µM | SK-OV-3 > 100 µM | UO-31 > 100 µM | 786-0 > 100 µM | SNB-19 > 100 µM | A549 > 100 µM | SN12C > 100 µM | OVCAR-8 > 100 µM | SF-539 > 100 µM | OVCAR-5 > 100 µM

COc1nc2ncc([C@@H](OC(C)=O)[C@@H](COC(C)=O)OC(C)=O)nc2c(=O)[nH]1
inactive: SF-268 > 100 µM and 83.4 µM | KM12 > 100 µM | CCRF-CEM > 100 µM | NCI-H460 > 100 µM | LOX IMVI > 100 µM | SK-MEL-2 > 100 µM | RXF 393 > 100 µM | K562 > 100 µM | SK-OV-3 > 100 µM | UO-31 > 100 µM | 786-0 > 100 µM | SNB-19 > 100 µM | COLO 205 > 100 µM | A549 > 100 µM | SN12C > 100 µM | OVCAR-8 > 100 µM | TK-10 > 100 µM | SF-539 > 100 µM | OVCAR-5 > 100 µM

CCC1CN2CCc3cc(OC)c(OC)cc3C2CC1CC1c2cc(OC)c(OC)cc2CCN1C(=O)CNC(=O)OC(C)(C)C (stereo unspecified)
inactive: SF-268 24.4 µM | KM12 3.31 µM | CCRF-CEM 3.34 µM | NCI-H460 6.49 µM | LOX IMVI 4.48 µM | SK-MEL-2 12.4 µM | RXF 393 17.5 µM | K562 3.34 µM | SK-OV-3 28.6 µM | UO-31 24.4 µM | 786-0 4.08 µM | SNB-19 13.9 µM | COLO 205 3.44 µM | A549 4.57 µM | SN12C 24.1 µM | OVCAR-8 5.64 µM | TK-10 28.6 µM | OVCAR-5 24.3 µM

Cc1nc(N)c(N2CCN(S(N)(=O)=O)CC2)c(O)n1
inactive: SF-268 > 100 µM | KM12 > 100 µM | CCRF-CEM > 100 µM | NCI-H460 > 100 µM | LOX IMVI > 100 µM | SK-MEL-2 > 100 µM | K562 > 100 µM | UO-31 > 100 µM | 786-0 > 100 µM | SNB-19 > 100 µM | COLO 205 > 100 µM | A549 > 100 µM | SN12C > 100 µM | OVCAR-8 > 100 µM | TK-10 > 100 µM | SF-539 > 100 µM | OVCAR-5 > 100 µM

CC1C[C@]2(C[C@@H](C)C(=O)O2)O[C@@H]2CC3(C)[C@@H]4CCC5C(C)(C)OC(=O)C[C@H]6OO[C@]4(CC[C@]3(C)C12)CC56O (stereo partly specified)
inactive: NCI-H460 > 100 µM | LOX IMVI > 100 µM | SK-MEL-2 > 100 µM | RXF 393 > 100 µM | SK-OV-3 > 100 µM | UO-31 > 100 µM | 786-0 > 100 µM | SNB-19 > 100 µM | A549 > 100 µM | SN12C > 100 µM | OVCAR-8 > 100 µM | TK-10 > 100 µM | SF-539 > 100 µM | OVCAR-5 > 100 µM

Cc1cccc2c1Sc1ccccc1C2NC(=O)CCN(C)C (stereo unspecified)
inactive: SF-268 > 100 µM | CCRF-CEM > 100 µM | NCI-H460 > 100 µM | LOX IMVI > 100 µM | RXF 393 > 100 µM | K562 > 100 µM | SK-OV-3 > 100 µM | UO-31 > 100 µM | 786-0 > 10 µM | SNB-19 > 100 µM | COLO 205 > 100 µM | A549 > 100 µM | SN12C > 100 µM | OVCAR-8 > 100 µM | TK-10 > 100 µM | SF-539 > 100 µM | OVCAR-5 > 100 µM

Nc1nc2cc(CNc3ccc(C(=O)O)cc3)ccc2nc1-c1ccccc1
inactive: SF-268 > 100 µM | CCRF-CEM > 100 µM | NCI-H460 > 100 µM | LOX IMVI 54.2 µM | SK-MEL-2 > 100 µM | RXF 393 > 100 µM | K562 > 100 µM | SK-OV-3 > 100 µM | UO-31 86.5 µM | 786-0 > 100 µM | SNB-19 > 100 µM | COLO 205 > 100 µM | A549 > 100 µM | SN12C > 100 µM | OVCAR-8 > 100 µM | TK-10 > 100 µM | SF-539 74.5 µM | OVCAR-5 > 100 µM

O=C1OC(=O)c2c1c(-c1ccccc1)nc1ccccc21
inactive: SF-268 > 100 µM | KM12 > 100 µM | CCRF-CEM > 100 µM | NCI-H460 > 100 µM | LOX IMVI > 100 µM | SK-MEL-2 > 100 µM | RXF 393 > 100 µM | K562 > 100 µM | SK-OV-3 > 100 µM | UO-31 > 100 µM | 786-0 > 100 µM | SNB-19 > 100 µM | COLO 205 > 100 µM | A549 > 100 µM | SN12C > 100 µM | OVCAR-8 > 100 µM | TK-10 > 100 µM | SF-539 > 100 µM

COC(=O)c1sc(=NC(=S)N2CCCCC2)sc1C(=O)OC
inactive: SF-268 > 100 µM | KM12 91.4 µM | CCRF-CEM 32.7 µM | NCI-H460 6.38 µM | SK-MEL-2 > 100 µM | RXF 393 > 100 µM | K562 71.6 µM | SK-OV-3 > 100 µM | UO-31 98.4 µM | 786-0 > 100 µM | SNB-19 > 100 µM | COLO 205 63 µM | SN12C > 100 µM | OVCAR-8 > 100 µM | TK-10 > 100 µM | SF-539 > 100 µM

COc1ccc(/C=C2\C(=O)N(C(=O)Cc3ccccc3)N=C2C)cc1OC
inactive: SF-268 > 100 µM | KM12 > 100 µM | CCRF-CEM > 100 µM | LOX IMVI > 100 µM | SK-MEL-2 > 100 µM | K562 > 100 µM | UO-31 > 100 µM | 786-0 > 100 µM | SNB-19 > 100 µM | COLO 205 > 100 µM | A549 > 100 µM | SN12C > 100 µM | OVCAR-8 > 100 µM | TK-10 > 100 µM | SF-539 > 100 µM | OVCAR-5 > 100 µM
